Test results reported in ChEMBL document CHEMBL1125575, “2-[(2-pyridylmethyl)sulfinyl]-1H-thieno[3,4-d]imidazoles. A novel class of gastric H+/K(+)-ATPase inhibitors” (J Med Chem, 1992).

Legend:
Rattus norvegicus [1] = species: Rattus norvegicus; test: animal or person; details: Stomach, iv, read-out: Inhibition
Oryctolagus cuniculus [2] = species: Oryctolagus cuniculus; test: cells; format: functional, organism-based, Stomach
Description: In vitro inhibition of 14C amino-pyrine uptake was determined in isolated rabbit gastric glands after dbcAMP stimulation

Canis familiaris [3] = species: Canis familiaris; test: animal or person; details: Canis lupus familiaris, Stomach, intraduodenal, read-out: Inhibition
Canis familiaris [4] = species: Canis familiaris; test: animal or person; details: Canis lupus familiaris, iv
animal or person = details: Canis lupus familiaris, Stomach, iv, read-out: Inhibition
Canis familiaris [5] = test: In vivo inhibition of gastric acid secretion was calculated in heidenhain-pouch dog after iv administration of the drug at a dose of 0.3 mg/kg; format: functional; details: Canis lupus familiaris, Stomach
[6] = biological target: Potassium-transporting ATPase alpha chain 1 (Sus scrofa, UniProt P19156)
Description: In vitro inhibitory concentration against H+/K+ ATPase from pig stomach by probit analysis

[7] = Chemical stability at pH 7.0; format: physicochemical; details: buffer
[8] = Chemical stability at pH 2.0; format: physicochemical; details: buffer
[9] = Chemical stability at pH 5.0; format: physicochemical; details: buffer
Canis familiaris [10] = test: Antisecretory activity calculated in heidenhain-pouch dog after id administration of the drug, value in parenthesis indicates 95% confidence limits; format: functional; details: Canis lupus familiaris
Canis familiaris [11] = test: Antisecretory activity calculated in heidenhain-pouch dog after iv administration of the drug, values in parenthesis indicates 95% confidence limits; format: functional; details: Canis lupus familiaris
Oryctolagus cuniculus [12] = species: Oryctolagus cuniculus; test: In vitro inhibition of 14C amino pyrine uptake was determined in isolated rabbit gastric glands after dbcAMP stimulation; format: functional; details: Stomach
[13] = biological target: Potassium-transporting ATPase alpha chain 1 (Sus scrofa) (UniProt P19156); test: Inhibition of H+/K+ ATPase from pig stomach; format: tissue-based; details: concentration not given here
Rattus norvegicus [14] = test: In vivo inhibition of gastric acid secretion was calculated in stomach-lumen perfused rat after iv administration of drug at a dose of 5 mg/kg; format: functional
Canis familiaris [15] = test: In vivo inhibition of gastric acid secretion was calculated in heidenhain-pouch dog after iv administration of the drug at a dose of 0.5 mg/kg; format: functional; details: Canis lupus familiaris, Stomach
Canis familiaris [16] = test: Antisecretory activity calculated in heidenhain-pouch dog after id administration of the drug; format: functional; details: Canis lupus familiaris

Potassium-transporting ATPase alpha chain 1, sequence (P19156 whole entry): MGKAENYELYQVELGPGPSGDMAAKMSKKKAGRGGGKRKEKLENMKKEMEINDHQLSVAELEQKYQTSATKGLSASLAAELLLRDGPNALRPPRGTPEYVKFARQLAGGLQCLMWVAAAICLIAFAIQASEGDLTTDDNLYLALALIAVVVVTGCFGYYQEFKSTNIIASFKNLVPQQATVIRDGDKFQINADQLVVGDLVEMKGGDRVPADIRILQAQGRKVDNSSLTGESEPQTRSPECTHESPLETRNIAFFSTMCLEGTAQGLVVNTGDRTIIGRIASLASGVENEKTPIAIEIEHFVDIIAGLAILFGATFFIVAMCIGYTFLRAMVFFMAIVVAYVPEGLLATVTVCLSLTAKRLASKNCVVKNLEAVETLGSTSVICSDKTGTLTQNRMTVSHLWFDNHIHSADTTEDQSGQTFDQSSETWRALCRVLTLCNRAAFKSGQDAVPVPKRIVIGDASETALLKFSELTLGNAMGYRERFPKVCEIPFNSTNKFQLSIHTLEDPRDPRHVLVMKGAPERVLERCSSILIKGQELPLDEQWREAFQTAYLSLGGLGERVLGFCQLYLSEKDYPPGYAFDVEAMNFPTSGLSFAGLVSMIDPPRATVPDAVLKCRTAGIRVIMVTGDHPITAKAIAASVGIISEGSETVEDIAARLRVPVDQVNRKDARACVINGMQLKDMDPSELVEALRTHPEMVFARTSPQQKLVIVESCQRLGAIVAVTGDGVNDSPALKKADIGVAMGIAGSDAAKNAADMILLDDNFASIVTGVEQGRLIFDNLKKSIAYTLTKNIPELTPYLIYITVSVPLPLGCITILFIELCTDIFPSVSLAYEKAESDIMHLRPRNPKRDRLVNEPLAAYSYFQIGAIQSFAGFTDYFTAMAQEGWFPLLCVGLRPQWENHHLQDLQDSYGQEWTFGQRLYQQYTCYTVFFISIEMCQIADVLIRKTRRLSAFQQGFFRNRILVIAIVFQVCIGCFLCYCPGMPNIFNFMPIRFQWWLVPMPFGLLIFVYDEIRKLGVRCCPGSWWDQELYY
Potassium-transporting ATPase alpha chain 1 (Sus scrofa), sequence (P19156 whole entry, the tested form may be a part): as the sequence (P19156 whole entry) above
Description for physchem: pKa value of the compound

Work on `[O-][S+](Cc1cc(OCc2ccc(C(F)(F)F)cc2)ccn1)c1nc2cscc2[nH]1` (configuration not stated) yielded a pKa (physchem) of 3.74, an inhibition in vivo at 0.5 mg/kg (Rattus norvegicus [1]) of 80% and an IC50 (Oryctolagus cuniculus [2]; Stomach) of 600 nM. For the same compound, the inhibition in vivo at 1 mg/kg (Canis familiaris [3]) was 94%.

`COc1ccnc(C[S+]([O-])c2nc3cscc3[nH]2)c1Cl` (configuration not stated) gave a pKa (physchem) of 3.55, an ED50 (Canis familiaris [4]) of 0.1 mg/kg and an inhibition in vivo at 0.5 mg/kg (Rattus norvegicus [1]) of 71%. It also gave an IC50 (Oryctolagus cuniculus [2]; Stomach) of 1000 nM, an inhibition in vivo at 1 mg/kg (Canis familiaris [3]) of 36% and an inhibition in vivo at 0.3 mg/kg (animal or person) of 82%.

Compound `Cc1c(OCC(F)(F)F)ccnc1C[S+]([O-])c1nc2cscc2[nH]1` (configuration not stated) has an inhibition in vivo at 0.5 mg/kg (Rattus norvegicus [1]) of 56%, an IC50 (Oryctolagus cuniculus [2]; Stomach) of 21000 nM and an inhibition in vivo at 0.3 mg/kg (Canis familiaris [5]) of 57%.

With `COc1c(OCC(F)(F)F)ccnc1C[S+]([O-])c1nc2cscc2[nH]1` (configuration not stated) the pKa (physchem) was 3.52, the IC50 [6] was 4000 nM and the ED50 (Canis familiaris [4]) was 0.08 mg/kg. For the same compound, the inhibition in vivo at 0.5 mg/kg (Rattus norvegicus [1]) was 64%, the IC50 (Oryctolagus cuniculus [2]; Stomach) was 2500 nM and the inhibition in vivo at 0.3 mg/kg (animal or person) was 85%.

With `[O-][S+](Cc1cc(OC(C(F)(F)F)C(F)(F)F)ccn1)c1nc2cscc2[nH]1` (configuration not stated) the pKa (physchem) was 3.5, the inhibition in vivo at 0.5 mg/kg (Rattus norvegicus [1]) was 39% and the IC50 (Oryctolagus cuniculus [2]; Stomach) was 195000 nM.

In the case of `Cc1ccc(C[S+]([O-])c2nc3cscc3[nH]2)nc1` (configuration not stated), the pKa (physchem) is reported as 3.26, the ED50 (Canis familiaris [4]) is reported as 0.11 mg/kg and the inhibition in vivo at 0.5 mg/kg (Rattus norvegicus [1]) is reported as 78%. The IC50 (Oryctolagus cuniculus [2]; Stomach) was 9000 nM and the inhibition in vivo at 0.3 mg/kg (animal or person) was 72%.

With `COc1c(OCC(F)(F)C(F)(F)C(F)(F)F)ccnc1C[S+]([O-])c1nc2cscc2[nH]1` (configuration not stated) the IC50 [6] was 7000 nM, the inhibition in vivo at 0.5 mg/kg (Rattus norvegicus [1]) was 70% and the IC50 (Oryctolagus cuniculus [2]) was 1100 nM. For the same compound, the inhibition in vivo at 1 mg/kg (Canis familiaris [3]) was 66%.

`Cc1sc(C)c2[nH]c([S+]([O-])Cc3cc(OCC(F)(F)F)ccn3)nc12` (configuration not stated) gave an IC50 [6] of 2000 nM, an IC50 (Oryctolagus cuniculus [2]; Stomach) of 3700 nM and an inhibition in vivo at 0.3 mg/kg (animal or person) of 54%.

Compound `COc1c(OCC(F)(F)C(F)(F)F)ccnc1C[S+]([O-])c1nc2cscc2[nH]1` (configuration not stated) has a half-life [7] of 23 h, an ED50 (Canis familiaris [4]) of 0.13 mg/kg and a half-life [8] of 0.183 h. It also gave a half-life [9] of 7.8 h, an inhibition in vivo at 0.5 mg/kg (Rattus norvegicus [1]) of 57% and an IC50 (Oryctolagus cuniculus [2]; Stomach) of 1000 nM. For the same compound, the inhibition in vivo at 1 mg/kg (Canis familiaris [3]) was 95%, the ED50 (Canis familiaris [10]) was 0.16 mg/kg and the inhibition in vivo at 0.3 mg/kg (animal or person) was 74%.

Compound `[O-][S+](Cc1cc(OCC(F)(F)C(F)(F)C(F)(F)F)ccn1)c1nc2cscc2[nH]1` (configuration not stated) [SAVIPRAZOLE] has an ED50 (Canis familiaris [11]) of 0.22 mg/kg, a half-life [7] of 8 h and a pKa (physchem) of 3.73. For the same compound, the half-life [8] was 0.05 h, the half-life [9] was 1.4 h and the inhibition in vivo at 0.5 mg/kg (Rattus norvegicus [1]) was 72%. It also gave an IC50 (Oryctolagus cuniculus [2]; Stomach) of 1300 nM, an inhibition in vivo at 1 mg/kg (Canis familiaris [3]) of 93% and an inhibition in vivo at 0.3 mg/kg (animal or person) of 76%.

For `[O-][S+](Cc1cc(OCc2ccc(F)cc2)ccn1)c1nc2cscc2[nH]1` (configuration not stated), the IC50 [6] was 500 nM, the inhibition in vivo at 0.5 mg/kg (Rattus norvegicus [1]) was 85% and the IC50 (Oryctolagus cuniculus [2]) was 500 nM. For the same compound, the inhibition in vivo at 0.3 mg/kg (Canis familiaris [5]) was 80%.

Work on `COc1cccnc1C[S+]([O-])c1nc2cscc2[nH]1` (configuration not stated) yielded an inhibition in vivo at 0.5 mg/kg (Rattus norvegicus [1]) of 59% and an IC50 (Oryctolagus cuniculus [12]) of 290000 nM.

In the case of `COc1ccnc(C[S+]([O-])c2nc3cscc3[nH]2)c1` (configuration not stated), the pKa (physchem) is reported as 4.16, the inhibition in vivo at 0.5 mg/kg (Rattus norvegicus [1]) is reported as 82% and the IC50 (Oryctolagus cuniculus [2]; Stomach) is reported as 19000 nM. It also gave an inhibition in vivo at 0.3 mg/kg (animal or person) of 84%.

With `[O-][S+](Cc1cc(OCC(F)(F)F)ccn1)c1nc2cscc2[nH]1` (configuration not stated) the pKa (physchem) was 3.83, the inhibition in vivo at 0.5 mg/kg (Rattus norvegicus [1]) was 96% and the IC50 (Oryctolagus cuniculus [2]; Stomach) was 3000 nM. For the same compound, the inhibition in vivo at 1 mg/kg (Canis familiaris [3]) was 73% and the inhibition in vivo at 0.3 mg/kg (animal or person) was 62%.

With `[O-][S+](Cc1cc(OCC(F)(F)C(F)(F)C(F)(F)C(F)F)ccn1)c1nc2cscc2[nH]1` (configuration not stated) the IC50 [6] was 2000 nM and the IC50 (Oryctolagus cuniculus [2]; Stomach) was 3000 nM.

Work on `COc1c(Cl)cnc(C[S+]([O-])c2nc3cscc3[nH]2)c1C` (configuration not stated) yielded an inhibition [13] of -5%, an inhibition in vivo at 0.5 mg/kg (Rattus norvegicus [1]) of 43% and an IC50 (Oryctolagus cuniculus [2]; Stomach) of 230000 nM. It also gave an inhibition in vivo at 1 mg/kg (Canis familiaris [3]) of 24%.

Work on `COc1ccnc(C[S+]([O-])c2nc3cscc3[nH]2)c1Br` (configuration not stated) yielded a pKa (physchem) of 3.52, an inhibition in vivo at 0.5 mg/kg (Rattus norvegicus [1]) of 71% and an IC50 (Oryctolagus cuniculus [2]; Stomach) of 2000 nM. It also gave an inhibition in vivo at 1 mg/kg (Canis familiaris [3]) of -11% and an inhibition in vivo at 0.3 mg/kg (animal or person) of 73%.

For `Cc1cnc(C[S+]([O-])c2nc3cscc3[nH]2)cc1OCC(F)(F)F` (configuration not stated), the inhibition in vivo at 0.5 mg/kg (Rattus norvegicus [1]) was 69%, the IC50 (Oryctolagus cuniculus [2]; Stomach) was 1000 nM and the inhibition in vivo at 1 mg/kg (Canis familiaris [3]) was 92%. It also gave an inhibition in vivo at 0.3 mg/kg (animal or person) of 83%.

For `CCOc1ccnc(C[S+]([O-])c2nc3cscc3[nH]2)c1` (configuration not stated), the pKa (physchem) was 3.92 and the IC50 (Oryctolagus cuniculus [2]; Stomach) was 3000 nM.

`COc1cc(C[S+]([O-])c2nc3cscc3[nH]2)ncc1Cl` (configuration not stated) showed a pKa (physchem) of 3.44, an inhibition in vivo at 0.5 mg/kg (Rattus norvegicus [1]) of 58% and an IC50 (Oryctolagus cuniculus [2]; Stomach) of 31000 nM. The inhibition in vivo at 1 mg/kg (Canis familiaris [3]) was 55% and the inhibition in vivo at 0.3 mg/kg (animal or person) was 38%.

`Cc1ccnc(C[S+]([O-])c2nc3cscc3[nH]2)c1` (configuration not stated) gave an inhibition in vivo at 5 mg/kg (Rattus norvegicus [14]) of -67% and an inhibition in vivo at 0.5 mg/kg (Canis familiaris [15]) of 72%.

`COc1c(Br)cnc(C[S+]([O-])c2nc3cscc3[nH]2)c1C` (configuration not stated) showed an inhibition [13] of -5%, an inhibition in vivo at 0.5 mg/kg (Rattus norvegicus [1]) of 37% and an IC50 (Oryctolagus cuniculus [2]; Stomach) of 81000 nM.

With `COc1c(OCC(F)(F)C(F)F)ccnc1C[S+]([O-])c1nc2cscc2[nH]1` (configuration not stated) the IC50 [6] was 3000 nM, the inhibition in vivo at 0.5 mg/kg (Rattus norvegicus [1]) was 79% and the IC50 (Oryctolagus cuniculus [2]) was 600 nM. The inhibition in vivo at 1 mg/kg (Canis familiaris [3]) was 47% and the inhibition in vivo at 0.3 mg/kg (animal or person) was 58%.

For `COc1c(OCC(F)(F)C(F)(F)C(F)(F)C(F)F)ccnc1C[S+]([O-])c1nc2cscc2[nH]1` (configuration not stated), the IC50 [6] was 12000 nM, the inhibition in vivo at 0.5 mg/kg (Rattus norvegicus [1]) was 64% and the IC50 (Oryctolagus cuniculus [2]; Stomach) was 1000 nM. For the same compound, the inhibition in vivo at 1 mg/kg (Canis familiaris [3]) was 63%.

`COc1ccc2[nH]c([S+]([O-])Cc3ncc(C)c(OC)c3C)nc2c1` (configuration not stated) [OMEPRAZOLE] showed an ED50 (Canis familiaris [16]) of 0.25 mg/kg, a half-life [7] of 17 h and an ED50 (Canis familiaris [4]) of 0.1 mg/kg. It also gave a half-life [8] of 12 h and a half-life [9] of 2.26 h.

Compound `[O-][S+](Cc1cc(Oc2ccc(F)cc2)ccn1)c1nc2cscc2[nH]1` (configuration not stated) has an inhibition in vivo at 0.5 mg/kg (Rattus norvegicus [1]) of 84%, an IC50 (Oryctolagus cuniculus [2]; Stomach) of 4000 nM and an inhibition in vivo at 1 mg/kg (Canis familiaris [3]) of 97%. For the same compound, the inhibition in vivo at 0.3 mg/kg (animal or person) was 85%.
